This note sets out measurements from US20130137102A1, “Methods and kits for modulating tumor invasiveness and metastatic potential” (TUFTS MEDICAL CENTER, INC., priority 2010, published 2013).

The subject of one series is Tiam1. Nature of the series: In vitro Tiam1 cleavage assay. The class given is biochemical, human. The conditions noted are these: immunoblot. (A western blot detects proteins with antibodies after separation by electrophoresis.)
For a further series, the system named is RMF cells. Nature of the series: Senescence induction and SA-β-Gal staining. The class given is cell-based, human. The conditions noted are these: repeated 3-5 days later, seven days after induction.
In a further series the test system is HMECs. Nature of the series: Spheroid co-culture in Matrigel with senescent RMFs. Format: cell-based, human. The settings on record: RMFs exposed to the agent before co-culture; preliminary examples. The method, then:
(§1) As described previously [Xu K, et al., 2010, Oncogene 29:6533-42], Matrigel (BD Biosciences) was diluted in 1:1 ratio with ice-cold HMEC medium, and 50 μl of the mixture was placed mid-well in a 24-well plate. After incubating for 5 min in 37° C., an additional 250 μl of Matrigel:medium mixture was added into the well and incubated for another 30 min. A 1:1 mixture of HMEC and RMF cells (0.5×10^5 cells each) in 0.5 ml of HMEC medium was gently dropped onto the top of the solidified gel. Cells were cultured for two weeks and medium was changed every two or three days. Spheroid formation and projection growth were monitored daily under light microscopy. Images were obtained on a Diaphot Software Version 4.1 (Diagnostic Instruments Inc).
as §1, with “and 50 ul of the” for “and 50 μl of the”, “another 30 min A 1:1” for “another 30 min. A 1:1”, “light microscopy. […]” for “light microscopy. Images were obtained on a Diaphot Software Version 4.1 (Diagnostic Instruments Inc).”

Series [1] deals with T-cell lymphoma invasion and metastasis-inducing protein 1 (Tiam1).

Where a SMILES comes first, the peptide text is derived from it. [ ]: non-standard residue; d: D form. Nle = CCCC[C@H](N)C(=O)O

Chain of T-cell lymphoma invasion and metastasis-inducing protein 1 (Tiam1) (chain, as listed by the source): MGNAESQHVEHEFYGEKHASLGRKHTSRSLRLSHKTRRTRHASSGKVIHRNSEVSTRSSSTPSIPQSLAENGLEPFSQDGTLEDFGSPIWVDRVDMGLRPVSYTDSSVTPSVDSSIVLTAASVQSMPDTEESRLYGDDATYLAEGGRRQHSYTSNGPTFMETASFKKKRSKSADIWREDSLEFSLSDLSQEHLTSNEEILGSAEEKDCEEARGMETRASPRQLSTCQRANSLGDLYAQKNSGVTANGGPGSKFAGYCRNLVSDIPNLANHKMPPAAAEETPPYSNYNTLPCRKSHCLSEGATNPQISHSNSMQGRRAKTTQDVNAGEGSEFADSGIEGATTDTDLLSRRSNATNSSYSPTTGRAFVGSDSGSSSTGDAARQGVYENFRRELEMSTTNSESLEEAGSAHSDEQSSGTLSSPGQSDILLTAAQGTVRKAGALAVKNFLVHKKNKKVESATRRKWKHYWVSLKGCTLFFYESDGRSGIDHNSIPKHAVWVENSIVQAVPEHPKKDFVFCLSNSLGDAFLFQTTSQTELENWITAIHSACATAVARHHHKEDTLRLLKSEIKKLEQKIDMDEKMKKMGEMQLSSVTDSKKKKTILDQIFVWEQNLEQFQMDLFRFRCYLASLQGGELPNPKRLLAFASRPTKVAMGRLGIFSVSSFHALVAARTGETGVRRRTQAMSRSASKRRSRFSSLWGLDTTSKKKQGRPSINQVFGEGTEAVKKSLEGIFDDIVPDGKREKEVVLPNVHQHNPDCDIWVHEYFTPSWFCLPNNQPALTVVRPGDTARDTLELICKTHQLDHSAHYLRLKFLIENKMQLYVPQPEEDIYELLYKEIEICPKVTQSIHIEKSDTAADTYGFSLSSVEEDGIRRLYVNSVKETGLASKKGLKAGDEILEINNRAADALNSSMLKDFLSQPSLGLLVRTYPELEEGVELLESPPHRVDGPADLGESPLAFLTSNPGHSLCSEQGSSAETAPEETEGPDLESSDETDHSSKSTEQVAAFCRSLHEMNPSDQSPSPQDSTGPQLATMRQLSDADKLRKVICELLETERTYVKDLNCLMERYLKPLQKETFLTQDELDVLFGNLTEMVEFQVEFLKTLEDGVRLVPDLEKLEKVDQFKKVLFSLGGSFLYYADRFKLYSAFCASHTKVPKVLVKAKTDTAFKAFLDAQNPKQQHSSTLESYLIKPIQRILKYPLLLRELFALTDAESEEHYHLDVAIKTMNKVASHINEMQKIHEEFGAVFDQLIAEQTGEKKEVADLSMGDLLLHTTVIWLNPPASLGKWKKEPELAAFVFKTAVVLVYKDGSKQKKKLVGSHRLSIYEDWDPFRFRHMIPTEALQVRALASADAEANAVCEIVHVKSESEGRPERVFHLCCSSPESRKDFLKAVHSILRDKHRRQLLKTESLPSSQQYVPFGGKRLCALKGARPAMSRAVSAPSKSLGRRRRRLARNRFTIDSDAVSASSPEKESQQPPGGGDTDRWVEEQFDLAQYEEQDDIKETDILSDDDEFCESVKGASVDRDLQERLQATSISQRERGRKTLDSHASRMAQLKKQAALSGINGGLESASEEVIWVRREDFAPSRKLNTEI
Protocol for RMF cells: After treatment, cells were rinsed twice with phosphate-buffered saline (PBS) and left to recover in culture medium. […] For each treatment, senescence induction was repeated 3-5 days later to prevent recovery and cell cycle re-entry. Cells were sub-cultured for at least 7 days and senescence induction was confirmed by SA-β-gal staining.
SA-β-Gal staining was conducted as described previously [Dimri, G P, et al., 1995, Proc Natl Acad Sci USA 92:9363-7]. Briefly, cells were washed twice in PBS and fixed 5 minutes in 2% formaldehyde/0.2% glutaraldehyde, washed again, and incubated at 37° C. overnight with fresh senescence-associated β-Gal (SA-β-Gal) stain solution: 1 mg 5-bromo-4-chloro-3-indolyl-β-D-galactoside (X-Gal) per ml (stock=20 mg in dimethylformamide per ml)/40 mM citric acid/sodium phosphate, pH 6.0/5 mM potassium ferrocyanide/5 mM potassium ferricyanide/150 mM NaCl/2 mM MgCl2. Cells with positive staining were observed and counted under a light microscope (Nikon, Eclipse TS100).

As for `CCCC[C@@H](C=O)NC(=O)[C@H](CC(C)C)NC(=O)[C@H](CC(C)C)NC(C)=O` [ALLN] (Ac-Leu-Leu-[Nle]-aldehyde), the “degradation of immobilized Tiam1 induced by senescent lysates” value in the series on Tiam1 (lysates pre-incubated on ice 30 minutes with 50 μM ALLN) was “significantly inhibited degradation of the immobilized Tiam1”. Take `O=C(O)CN(CCN(CC(=O)O)CC(=O)O)CC(=O)O` [EDTA]: in the series with Tiam1 (lysates pre-incubated on ice 30 minutes with 1 mM EDTA), the “degradation of immobilized Tiam1 induced by senescent lysates” value is recorded as “significantly inhibited degradation of the immobilized Tiam1”. On to `OO` [H2O2, hydrogen peroxide], for which the “induction of senescence (morphology, SA β-gal staining)” value in the series with RMF cells (800 μmol/L H2O2 for 2 hours) was “had taken on a morphologic appearance characteristic of senescence”. The “HMEC invasiveness into matrix on co-culture with RMFs rendered senescent by the agent” value in the series on HMECs is recorded as “increased invasiveness into the surrounding matrix”. With `CC(C)C[C@H](NC(=O)[C@H](Cc1ccccc1)NC(=O)c1cnccn1)B(O)O` [bortezomib], the “degradation of immobilized Tiam1 by senescent lysates” value in the series on Tiam1 (lysates pre-incubated with 5 nM bortezomib at 37° C. for 24 hours) is reported as “did not prevent degradation of immobilized Tiam1”. Take bleomycin: the “induction of senescence (morphology, SA β-gal staining)” value with RMF cells (50 μg/ml bleomycin for 24 hours) is given as “had taken on a morphologic appearance characteristic of senescence”. Further, the “HMEC invasiveness into matrix on co-culture with RMFs rendered senescent by the agent” value in the series on HMECs is reported as “increased invasiveness into the surrounding matrix”. Regarding calpain proteases, the “degradation of immunoprecipitated Tiam1 (in vitro Tiam1 cleavage assay, immunoblot)” value in series [1] was “Pre-incubation of cell lysates with either the calpain inhibitor ALLN or the calcium-chelator EDTA significantly inhibited degradation of the immobilized Tiam1 induced by senescent lysates”.
